According to PubChem BioAssay AID328 (DTP/NCI, 2004):
Values joined by “and” are separate entries in the source; they are usually repeats but may differ in a detail not shown here. Equal values may be shown once. Toxic doses and inconclusive results are not listed.

Tested on: BDF1 mice, P388 leukemia ip, median survival T/C
Experiment: NCI In Vivo Anticancer Drug Screen. Data for tumor model P388 Leukemia (intraperitoneal) in B6D2F1 (BDF1) mice
Conditions: endpoint: median survival time, higher = longer survival
Summary of the method: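 Vehicle-dosed animals serve as the reference; survival of compound-dosed, tumour-implanted mice is divided by it.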

[1] = dose: 50.0 mg/kg/injection, schedule: Q01DX009 (ip), vehicle: saline with Tween-80
[2] = dose: 100.0 mg/kg/injection, schedule: Q01DX009 (ip), vehicle: Klucel (hydroxypropylcellulose) (HPC)
[3] = dose: 100.0 mg/kg/injection, schedule: Q01DX009 (ip), vehicle: saline with Tween-80
[4] = dose: 200.0 mg/kg/injection, schedule: Q01DX009 (ip), vehicle: saline with Tween-80

CCc1ccc(NC(=O)N(CCCl)N=O)cc1
T/C (dose: 0.62 mg/kg/injection, schedule: Q04DX003 (ip), vehicle: Klucel (hydroxypropylcellulose) (HPC)): 109 % of control
T/C (dose: 0.8 mg/kg/injection, schedule: Q01DX009 (ip), vehicle: gum acacia): 158 % of control
T/C (dose: 1.3 mg/kg/injection, schedule: Q01DX009 (ip), vehicle: gum acacia): 154 % of control
T/C (dose: 2.0 mg/kg/injection, schedule: Q01DX009 (ip), vehicle: gum acacia): 153 % of control and 187 % of control
T/C (dose: 3.0 mg/kg/injection, schedule: Q01DX009 (ip), vehicle: gum acacia): 176 % of control
T/C (dose: 4.5 mg/kg/injection, schedule: Q01DX009 (ip), vehicle: gum acacia): 196 % of control
T/C (dose: 5.0 mg/kg/injection, schedule: Q04DX003 (ip), vehicle: Klucel (hydroxypropylcellulose) (HPC)): 177 % of control and 204 % of control
T/C (dose: 7.0 mg/kg/injection, schedule: Q01DX009 (ip), vehicle: gum acacia): 230 % of control and 236 % of control
T/C (dose: 8.0 mg/kg/injection, schedule: Q04DX003 (ip), vehicle: Klucel (hydroxypropylcellulose) (HPC)): 214 % of control
T/C (dose: 11.0 mg/kg/injection, schedule: Q01DX009 (ip), vehicle: gum acacia): 250 % of control
T/C (dose: 12.0 mg/kg/injection, schedule: Q04DX003 (ip), vehicle: Klucel (hydroxypropylcellulose) (HPC)): 238 % of control
T/C (dose: 17.0 mg/kg/injection, schedule: Q01DX009 (ip), vehicle: gum acacia): 196 % of control
T/C (dose: 18.0 mg/kg/injection, schedule: Q04DX003 (ip), vehicle: Klucel (hydroxypropylcellulose) (HPC)): 233 % of control and 285 % of control
T/C (dose: 25.0 mg/kg/injection, schedule: Q01DX009 (ip), vehicle: gum acacia): 212 % of control
T/C (dose: 25.0 mg/kg/injection, schedule: Q04DX003 (ip), vehicle: Klucel (hydroxypropylcellulose) (HPC)): 300 % of control
T/C (dose: 37.0 mg/kg/injection, schedule: Q04DX003 (ip), vehicle: Klucel (hydroxypropylcellulose) (HPC)): 300 % of control

CCOC(=O)c1c(N)[nH]c(SSc2[nH]c(N)c(C(=O)OCC)c2C(=O)OCC)c1C(=O)OCC
T/C (dose: 25.0 mg/kg/injection, schedule: Q01DX009 (ip), vehicle: saline with Tween-80): 92 % of control
T/C [1]: 108 % of control
T/C (dose: 50.0 mg/kg/injection, schedule: Q04DX003 (ip), vehicle: saline with Tween-80): 109 % of control
T/C (dose: 100.0 mg/kg/injection, schedule: Q04DX003 (ip), vehicle: saline with Tween-80): 109 % of control
T/C (dose: 200.0 mg/kg/injection, schedule: Q04DX003 (ip), vehicle: saline with Tween-80): 114 % of control
T/C (dose: 400.0 mg/kg/injection, schedule: Q04DX003 (ip), vehicle: saline with Tween-80): 109 % of control

CC(=O)C(=Cc1c[nH]c2ccccc12)C(C)=O
T/C (dose: 12.5 mg/kg/injection, schedule: Q01DX009 (ip), vehicle: Klucel (hydroxypropylcellulose) (HPC)): 92 % of control
T/C (dose: 25.0 mg/kg/injection, schedule: Q01DX009 (ip), vehicle: Klucel (hydroxypropylcellulose) (HPC)): 90 % of control
T/C [2]: 110 % of control
T/C (dose: 100.0 mg/kg/injection, schedule: Q04DX003 (ip), vehicle: water): 105 % of control
T/C (dose: 200.0 mg/kg/injection, schedule: Q04DX003 (ip), vehicle: water): 120 % of control

CN(C)c1ccc(-c2c3ccccc3nc3ccccc23)cc1
T/C [1]: 107 % of control
T/C [3]: 115 % of control
T/C [4]: 106 % of control

Nc1nc(N)nc(N)n1
T/C [2]: 90 % of control
T/C (dose: 200.0 mg/kg/injection, schedule: Q01DX009 (ip), vehicle: Klucel (hydroxypropylcellulose) (HPC)): 90 % of control
T/C (dose: 400.0 mg/kg/injection, schedule: Q01DX009 (ip), vehicle: Klucel (hydroxypropylcellulose) (HPC)): 100 % of control
T/C (dose: 800.0 mg/kg/injection, schedule: Q01DX009 (ip), vehicle: Klucel (hydroxypropylcellulose) (HPC)): 100 % of control
T/C (dose: 2000.0 mg/kg/injection, schedule: Q01DX009 (ip), vehicle: Klucel (hydroxypropylcellulose) (HPC)): 95 % of control

O=C(NC(=S)N1CCOCC1)c1ccccc1
T/C [1]: 100 % of control
T/C [3]: 90 % of control
T/C [4]: 100 % of control
T/C (dose: 400.0 mg/kg/injection, schedule: Q01DX009 (ip), vehicle: saline with Tween-80): 97 % of control

O=C1C(NCCO)=C(N2CC2)C(=O)C(NCCO)=C1N1CC1
T/C (dose: 0.18 mg/kg/injection, schedule: Q01DX009 (ip), vehicle: saline): 248 % of control and 93 % of control
T/C (dose: 0.37 mg/kg/injection, schedule: Q01DX009 (ip), vehicle: saline): 275 % of control and 203 % of control
T/C (dose: 0.75 mg/kg/injection, schedule: Q01DX009 (ip), vehicle: saline): 194 % of control

CCOC(=O)/C=C(C)/C=C/C=C(C)/C=C/c1c(C)cc(OC)c(C)c1C
T/C [1]: 96 % of control
T/C [3]: 91 % of control
T/C [4]: 98 % of control

CN(C)CCCN1c2ccccc2Sc2ccc(F)cc21
T/C (dose: 6.25 mg/kg/injection, schedule: Q01DX009 (ip), vehicle: saline): 104 % of control
T/C (dose: 12.5 mg/kg/injection, schedule: Q01DX009 (ip), vehicle: saline): 109 % of control
T/C (dose: 25.0 mg/kg/injection, schedule: Q01DX009 (ip), vehicle: saline): 122 % of control
T/C (dose: 25.0 mg/kg/injection, schedule: Q04DX003 (ip), vehicle: saline): 104 % of control
T/C (dose: 50.0 mg/kg/injection, schedule: Q04DX003 (ip), vehicle: saline): 118 % of control
